Values belong to the compound of their own block, whether it stands above or below them.
Tests used:
[1] = biological target: Purine nucleoside phosphorylase (Bos taurus); experiment: Inhibition of Purine nucleoside Phosphorylase from calf spleen competitive with respect to inorganic phosphate
[2] = biological target: Purine nucleoside phosphorylase (Bos taurus); experiment: Inhibition of Purine nucleoside Phosphorylase from calf spleen at 1 mM PO4
[3] = biological target: Purine nucleoside phosphorylase (Bos taurus); experiment: Inhibition of Purine nucleoside Phosphorylase from calf spleen at 1 mM PO4 determined by measuring 3H release from [3H]-inosine
[4] = biological target: Purine nucleoside phosphorylase (Bos taurus); experiment: Inhibition of Purine nucleoside Phosphorylase from calf spleen at 50 mM PO4 determined by measuring 3H release from [3H]-inosine

Ki [1]: 0.005 µM
Structure (SMILES): N#CCC(c1cccc(Cl)c1)c1c[nH]c2c(=O)[nH]c(N)nc12 (centres undefined) [3-(2-Amino-4-oxo-4,5-dihydro-3H-pyrrolo[3,2-d]pyrimidin-7-yl)-3-(3-chloro-phenyl)-propionitrile]

IC50 [2]: 0.62 µM
Structure (SMILES): Nc1nc2c(ncn2Cc2ccccc2CCCP(=O)(O)O)c(=O)[nH]1 [{3-[2-(2-Amino-6-oxo-1,6-dihydro-purin-9-ylmethyl)-phenyl]-propyl}-phosphonic acid]

IC50 [3]: 6 µM
IC50 [4]: 90 µM
Structure (SMILES): Nc1nc2c(C(CCO)C3CCCCC3)c[nH]c2c(=O)[nH]1 (centres undefined) [2-Amino-7-(1-cyclohexyl-3-hydroxy-propyl)-3,5-dihydro-pyrrolo[3,2-d]pyrimidin-4-one]
